Results published in PMC4229385 (Circulation, 2014).

Molecular target: V1AR (AVP type 1A receptor) (Homo sapiens, UniProt P37288)
Assay: DAGR FRET assay, block of AVP-induced DAG generation at […]
Format: cell-based

V1AR (AVP type 1A receptor), sequence (P37288 whole entry): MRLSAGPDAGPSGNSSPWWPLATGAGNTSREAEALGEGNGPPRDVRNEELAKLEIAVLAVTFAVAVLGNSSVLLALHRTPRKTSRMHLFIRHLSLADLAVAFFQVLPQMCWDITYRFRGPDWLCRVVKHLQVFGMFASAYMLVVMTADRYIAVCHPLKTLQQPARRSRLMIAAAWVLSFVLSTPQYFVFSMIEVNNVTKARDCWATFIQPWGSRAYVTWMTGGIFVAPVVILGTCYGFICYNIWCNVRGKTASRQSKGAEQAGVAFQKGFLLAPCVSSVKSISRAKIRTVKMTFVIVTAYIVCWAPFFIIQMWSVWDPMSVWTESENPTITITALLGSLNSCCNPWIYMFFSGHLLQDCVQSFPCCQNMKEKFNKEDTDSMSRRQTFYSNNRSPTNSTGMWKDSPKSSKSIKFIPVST

COc1ccc(S(=O)(=O)N2c3ccc(Cl)cc3[C@](O)(c3ccccc3Cl)[C@@H]2C(=O)N2CCC[C@H]2C(N)=O)cc1OC [SR 49059]
DAGR FRET assay, block of AVP-induced DAG generation at 10 μM: it completely blocked AVP-dependent DAG production (Fig. 4E)
